Experimental data reported in ChEMBL document CHEMBL3217743, “Reduction of acyl glucuronidation in a series of acidic 11-hydroxysteroid dehydrogenase type 1 (11-HSD1) inhibitors: the discovery of AZD6925” (Medchemcomm, 2012).
Calls of active or inactive are those of the source. No cut-off for these calls is given here.

Tests used:
[1] = tested on: L5178Y; test: Mutagenicity in mouse L5178Y cells by mouse lymphoma assay; assay type: toxicity, cell-based
[2] = Clearance in rat; assay type: ADME, organism-based; settings: in vivo
[3] = tested on: Mus musculus; test: Ex vivo inhibition of 11beta-HSD1-mediated conversion of [3H]-cortisone to [3H]-cortisol in C57Bl6J mouse liver at 30 mg/kg, po by scintillation counting analysis; assay type: functional, organism-based; parameters: dose 30 mg/kg
[4] = Volume of distribution at steady state in rat at 1 to 3 mg/kg; assay type: ADME, organism-based; parameters: dose 1-3 mg/kg; settings: in vivo, read-out: Vdss
[5] = Inhibition of N-terminal 6-His-tagged cynomolgus monkey full length 11beta-HSD1 assessed as conversion of cortisone to cortisol after 25 mins by HTRF assay; parameters: species or system Macaca fascicularis
[6] = Half life in mouse at 1 to 3 mg/kg, iv; assay type: ADME, organism-based; parameters: dose 1-3 mg/kg, route intravenous; settings: in vivo
[7] = Octanol-buffer partition coefficient, log D of the compound at pH 7.4 after 30 mins by shake-flask method; assay type: physicochemical
[8] = Drug excretion in bile duct cannulated rat bile assessed as compound remaining by HPLC analysis; assay type: ADME, tissue-based; settings: in vivo
[9] = Clearance in rat hepatocytes measured per 10^6 cells; assay type: ADME, cell-based, Hepatocyte; settings: read-out: CLH
[10] = molecular target: T1, 17-beta-hydroxysteroid dehydrogenase type 3 (Homo sapiens, UniProt P37058); test: Inhibition of recombinant 17beta-HSD3 (unknown origin) assessed as conversion of androstenedione to testosterone after 90 mins by scintillation counting analysis
T1 sequence (P37058 whole entry): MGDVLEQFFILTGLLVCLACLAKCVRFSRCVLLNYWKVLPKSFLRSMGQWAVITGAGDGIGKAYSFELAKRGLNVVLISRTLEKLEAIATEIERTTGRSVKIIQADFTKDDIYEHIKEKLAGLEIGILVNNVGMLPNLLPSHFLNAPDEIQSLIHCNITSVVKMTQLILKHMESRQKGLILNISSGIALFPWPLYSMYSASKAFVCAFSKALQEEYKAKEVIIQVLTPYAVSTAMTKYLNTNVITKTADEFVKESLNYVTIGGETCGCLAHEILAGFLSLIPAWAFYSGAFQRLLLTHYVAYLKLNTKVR

[11] = Drug excretion in bile duct cannulated rat urine assessed as compound remaining by HPLC analysis; assay type: ADME, tissue-based; settings: read-out: Stability
[12] = Half life in rat at 1 to 3 mg/kg, po; assay type: ADME, organism-based; parameters: dose 1-3 mg/kg, route oral; settings: in vivo
[13] = molecular target: Sigma non-opioid intracellular receptor 1 (Homo sapiens, UniProt Q99720); test: Inhibition of sigma-1 receptor (unknown origin)
Sequence of Sigma non-opioid intracellular receptor 1 (Q99720 whole entry): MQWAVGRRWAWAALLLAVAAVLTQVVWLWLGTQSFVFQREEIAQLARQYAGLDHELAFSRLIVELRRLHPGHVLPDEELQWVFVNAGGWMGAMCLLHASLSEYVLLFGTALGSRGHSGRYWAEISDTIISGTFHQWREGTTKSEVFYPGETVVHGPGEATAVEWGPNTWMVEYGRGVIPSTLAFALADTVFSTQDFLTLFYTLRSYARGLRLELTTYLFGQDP

[14] = Fraction unbound in mouse plasma by equilibrium dialysis technique; assay type: ADME, cell-free
[15] = molecular target: T2, Glucocorticoid receptor (Homo sapiens) (UniProt P04150); test: Activity at glucocorticoid receptor (unknown origin)
T2 sequence (whole entry): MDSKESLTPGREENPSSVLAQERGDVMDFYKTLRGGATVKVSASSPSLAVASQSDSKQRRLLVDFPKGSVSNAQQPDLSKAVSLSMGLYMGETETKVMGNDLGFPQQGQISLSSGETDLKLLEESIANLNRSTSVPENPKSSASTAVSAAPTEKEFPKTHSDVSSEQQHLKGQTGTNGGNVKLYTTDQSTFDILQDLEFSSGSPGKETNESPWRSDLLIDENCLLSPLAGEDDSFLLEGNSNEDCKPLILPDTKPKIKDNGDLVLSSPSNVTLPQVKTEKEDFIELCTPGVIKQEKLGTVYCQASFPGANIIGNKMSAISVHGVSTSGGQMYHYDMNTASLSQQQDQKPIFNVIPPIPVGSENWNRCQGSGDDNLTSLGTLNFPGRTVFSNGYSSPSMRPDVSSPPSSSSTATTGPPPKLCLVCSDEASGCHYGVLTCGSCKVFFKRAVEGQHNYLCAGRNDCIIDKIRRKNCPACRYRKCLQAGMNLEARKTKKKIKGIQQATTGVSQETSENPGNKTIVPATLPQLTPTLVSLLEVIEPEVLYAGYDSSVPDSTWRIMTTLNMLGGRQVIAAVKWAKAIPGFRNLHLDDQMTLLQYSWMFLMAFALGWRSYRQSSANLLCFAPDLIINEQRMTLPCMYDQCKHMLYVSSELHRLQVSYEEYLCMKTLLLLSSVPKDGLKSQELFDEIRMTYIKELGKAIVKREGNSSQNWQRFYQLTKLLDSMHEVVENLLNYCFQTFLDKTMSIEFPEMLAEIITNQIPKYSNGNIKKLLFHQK

[16] = Volume of distribution at steady state in mouse at 1 to 3 mg/kg; assay type: ADME, organism-based; parameters: dose 1-3 mg/kg; settings: in vivo, read-out: Vdss
[17] = Half life in dog at 1 to 3 mg/kg, po; assay type: ADME, organism-based, Canis lupus familiaris; parameters: dose 1-3 mg/kg, route oral; settings: in vivo
[18] = molecular target: T3, 11-beta-hydroxysteroid dehydrogenase 1 (Homo sapiens, UniProt P28845)
T3 sequence (P28845 whole entry): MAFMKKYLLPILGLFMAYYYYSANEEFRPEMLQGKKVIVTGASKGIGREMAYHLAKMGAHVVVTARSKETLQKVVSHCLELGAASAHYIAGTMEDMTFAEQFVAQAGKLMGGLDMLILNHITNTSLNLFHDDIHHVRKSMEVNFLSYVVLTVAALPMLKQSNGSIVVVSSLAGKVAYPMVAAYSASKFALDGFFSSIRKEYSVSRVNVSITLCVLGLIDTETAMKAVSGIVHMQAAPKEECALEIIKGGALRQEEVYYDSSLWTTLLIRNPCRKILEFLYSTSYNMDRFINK
Description: Inhibition of N-terminal 6-His-tagged human full length 11beta-HSD1 assessed as conversion of cortisone to cortisol after 25 mins by HTRF assay

[19] = Drug metabolism in rat hepatocytes assessed as compound remaining by LC-MS/MS analysis; assay type: ADME, cell-based, Hepatocyte
[20] = molecular target: CYP2D6 (Homo sapiens, UniProt P10635); test: Inhibition of CYP2D6 (unknown origin) at 10 uM relative to control; assay type: ADME
Sequence of CYP2D6 (P10635 whole entry): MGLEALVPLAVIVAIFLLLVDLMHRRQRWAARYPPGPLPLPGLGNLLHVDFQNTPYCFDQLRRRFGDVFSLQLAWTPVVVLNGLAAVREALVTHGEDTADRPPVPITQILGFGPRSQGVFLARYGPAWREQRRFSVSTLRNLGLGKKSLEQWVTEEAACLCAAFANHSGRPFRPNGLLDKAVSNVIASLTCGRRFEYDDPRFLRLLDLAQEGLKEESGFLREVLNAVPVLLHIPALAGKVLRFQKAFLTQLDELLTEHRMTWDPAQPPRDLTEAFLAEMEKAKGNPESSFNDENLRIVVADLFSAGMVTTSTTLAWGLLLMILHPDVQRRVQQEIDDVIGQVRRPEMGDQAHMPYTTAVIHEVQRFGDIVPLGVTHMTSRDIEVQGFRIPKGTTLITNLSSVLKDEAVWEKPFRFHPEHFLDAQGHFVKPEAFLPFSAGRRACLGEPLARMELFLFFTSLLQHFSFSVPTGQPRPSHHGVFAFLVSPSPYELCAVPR

[21] = molecular target: 11-beta-hydroxysteroid dehydrogenase 1 (Mus musculus, UniProt P50172); test: Inhibition of N-terminal 6-His-tagged mouse full length 11beta-HSD1 assessed as conversion of cortisone to cortisol after 25 mins by HTRF assay
Sequence of 11-beta-hydroxysteroid dehydrogenase 1 (Mus musculus, UniProt P50172) (P50172 whole entry): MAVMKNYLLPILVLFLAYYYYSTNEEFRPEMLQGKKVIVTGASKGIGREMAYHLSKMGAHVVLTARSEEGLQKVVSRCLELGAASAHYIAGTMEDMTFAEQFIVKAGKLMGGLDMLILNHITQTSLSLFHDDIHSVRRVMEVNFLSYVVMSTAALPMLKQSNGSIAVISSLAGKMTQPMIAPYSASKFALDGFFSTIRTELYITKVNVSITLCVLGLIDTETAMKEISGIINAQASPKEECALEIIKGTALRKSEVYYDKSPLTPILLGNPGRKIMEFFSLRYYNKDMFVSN

[22] = molecular target: 11-beta-hydroxysteroid dehydrogenase 1 (Rattus norvegicus, UniProt P16232); test: Inhibition of N-terminal 6-His-tagged rat full length 11beta-HSD1 assessed as conversion of cortisone to cortisol after 25 mins by HTRF assay
Sequence of 11-beta-hydroxysteroid dehydrogenase 1 (Rattus norvegicus, UniProt P16232) (P16232 whole entry): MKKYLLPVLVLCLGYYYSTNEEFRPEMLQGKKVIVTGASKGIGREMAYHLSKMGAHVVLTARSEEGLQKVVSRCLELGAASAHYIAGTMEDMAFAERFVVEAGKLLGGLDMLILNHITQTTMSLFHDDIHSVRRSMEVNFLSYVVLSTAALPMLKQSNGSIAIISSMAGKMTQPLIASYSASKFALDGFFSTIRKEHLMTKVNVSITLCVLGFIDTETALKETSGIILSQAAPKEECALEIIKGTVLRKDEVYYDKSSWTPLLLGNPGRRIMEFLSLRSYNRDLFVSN

[23] = molecular target: CYP3A4 (Homo sapiens, UniProt P08684); test: Inhibition of CYP3A4 (unknown origin) at 10 uM relative to control; assay type: ADME
Sequence of CYP3A4 (P08684 whole entry): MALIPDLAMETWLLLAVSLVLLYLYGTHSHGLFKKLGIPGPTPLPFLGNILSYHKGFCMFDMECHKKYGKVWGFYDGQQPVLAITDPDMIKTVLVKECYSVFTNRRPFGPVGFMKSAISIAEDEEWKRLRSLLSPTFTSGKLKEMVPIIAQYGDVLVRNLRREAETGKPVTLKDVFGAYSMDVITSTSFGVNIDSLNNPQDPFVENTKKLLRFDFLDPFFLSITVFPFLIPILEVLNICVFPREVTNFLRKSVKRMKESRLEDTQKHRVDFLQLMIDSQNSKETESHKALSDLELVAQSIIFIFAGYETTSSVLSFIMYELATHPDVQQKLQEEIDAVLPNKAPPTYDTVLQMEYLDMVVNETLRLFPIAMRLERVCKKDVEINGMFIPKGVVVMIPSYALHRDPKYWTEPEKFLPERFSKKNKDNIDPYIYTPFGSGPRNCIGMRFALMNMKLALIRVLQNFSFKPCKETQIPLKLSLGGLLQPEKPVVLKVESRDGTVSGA

[24] = Half life in dog at 1 to 3 mg/kg, iv; assay type: ADME, organism-based, Canis lupus familiaris; parameters: dose 1-3 mg/kg, route intravenous; settings: in vivo
[25] = Inhibition of N-terminal 6-His-tagged dog full length 11beta-HSD1 assessed as conversion of cortisone to cortisol after 25 mins by HTRF assay; parameters: species or system Canis lupus familiaris
[26] = Volume of distribution at steady state in dog at 1 to 3 mg/kg; assay type: ADME, organism-based, Canis lupus familiaris; parameters: dose 1-3 mg/kg; settings: in vivo, read-out: Vdss
[27] = Half life in rat at 1 to 3 mg/kg, iv; assay type: ADME, organism-based; parameters: dose 1-3 mg/kg, route intravenous; settings: in vivo
[28] = Apparent permeability from apical to basolateral side in MDCK cells at 10 uM; assay type: ADME, cell-based, Canis lupus familiaris; settings: dog
[29] = Drug metabolism in dog hepatocytes assessed as compound remaining by LC-MS/MS analysis; assay type: ADME, cell-based, Canis lupus familiaris, Hepatocyte
[30] = Plasma clearance in dog at 1 to 3 mg/kg; assay type: ADME, organism-based, Canis lupus familiaris; parameters: dose 1-3 mg/kg
[31] = tested on: Salmonella typhimurium; test: Genotoxicity in Salmonella typhimurium by Ames test; assay type: toxicity, organism-based; settings: salmonella enterica subsp. enterica serovar typhimurium
[32] = Apparent permeability from basolateral to apical side in MDCK cells at 10 uM; assay type: ADME, cell-based, Canis lupus familiaris; settings: dog
[33] = Half life in mouse at 1 to 3 mg/kg, po; assay type: ADME, organism-based; parameters: dose 1-3 mg/kg, route oral; settings: in vivo
[34] = molecular target: T3, 11-beta-hydroxysteroid dehydrogenase 1; test: Inhibition of 11beta-HSD1 in human adipocytes assessed as conversion of [3H]-cortisone to [3H]-cortisol by scintillation counting analysis; assay type: cell-based

Q: With `CSc1nc(N2C[C@@H]3[C@H](C2)[C@H]3C(=O)O)ccc1C(=O)NC12CC3CC(CC(C3)C1)C2` as the compound, how does the Activity [1] read?
A: Non-toxic

Q: And the clearance [2]?
A: 6 mL/min/kg

Q: And the inhibition [3]?
A: Active

Q: And the Vd [4]?
A: 0.9 L/kg

Q: What about the IC50 [5] of the same compound?
A: 20 nM

Q: And the half-life [6]?
A: 2.5 h

Q: And the logD at 0.5 h [7]?
A: 2.1

Q: What about the Stability [8] of the same compound?
A: 52.8%

Q: And the hepatocyte CLint [9]?
A: 6 µL/min/1e6 cells

Q: And the IC50 [10]?
A: 25000 nM

Q: And the dose excreted [11]?
A: 7.6%

Q: What about the half-life [12] of the same compound?
A: 4.3 h

Q: What about the IC50 [13] of the same compound?
A: 30000 nM

Q: And the fraction unbound [14]?
A: 0.023

Q: What about the Activity [15] of the same compound?
A: inactive

Q: And the Vd [16]?
A: 1.2 L/kg

Q: What about the half-life [17] of the same compound?
A: 27 h

Q: What about the IC50 [18] of the same compound?
A: 6 nM

Q: And the Stability [19]?
A: 82%

Q: What about the inhibition at 10 µM [20] of the same compound?
A: < 25%

Q: And the IC50 [21]?
A: 310 nM

Q: And the IC50 [22]?
A: 82 nM

Q: What about the inhibition at 10 µM [23] of the same compound?
A: < 25%

Q: What about the half-life [24] of the same compound?
A: 15 h

Q: What about the IC50 [25] of the same compound?
A: 120 nM

Q: And the Vd [26]?
A: 0.7 L/kg

Q: And the half-life [27]?
A: 4.3 h

Q: And the Papp A→B at 10 µM [28]?
A: 21 ×10⁻⁶ cm/s

Q: What about the Stability [29] of the same compound?
A: 92%

Q: What about the clearance [30] of the same compound?
A: 1 mL/min/kg

Q: What about the Activity [31] of the same compound?
A: Non-toxic

Q: And the Papp B→A at 10 µM [32]?
A: 13 ×10⁻⁶ cm/s

Q: And the half-life [33]?
A: 2.5 h

Q: What about the IC50 [34] of the same compound?
A: 4 nM
